From patent US20240246968A1, “SMALL MOLECULE INHIBITORS OF KRAS G12C MUTANT” (Merck Sharp & Dohme LLC, priority 2021, published 2024)

Key:
[1] = test system: MIA PaCa-2 cells; experiment: Growth inhibition activity on KRAS-G12C mutant cell line (MIA PaCa-2), CellTiter-Glo 3D; type: cell-based, human; details: MIA PaCa-2, 3-day culture with compound
How it was run: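 Luminescence readout (CellTiter-Glo 3D) after 3 days of compound treatment at 37 °C, 5% CO2, 0.2% final DMSO, gave % growth inhibition versus no-compound wells, from which IC50 (nM) was derived; cells had been plated in 10% FBS RPMI1640 one day before dosing.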

[2] = target: T1, interaction between recombinant K-Ras4B G12C mutant protein and cRAF RAS-binding domain (cRAF-RBD) (Homo sapiens, UniProt P01116, G12C); experiment: Inhibitory activity on interaction between KRAS G12C and cRAF (Alpha technology); type: biochemical; details: GMPPNP-bound KRAS G12C incubated with compound at 25° C. for 1 hour, then cRAF-RBD; Alpha signal
T1 construct: made in house; host or cells: E. coli
How it was run: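 Alpha readout of cRAF-RBD (aa 50-132) binding to KRAS G12C (aa 1-169) after 1.5 h RT, following 1 h, 25° C compound preincubation with GMPPNP-bound protein (pH 7.5 Tris, 1 mM MgCl2, TCEP, Tween 20). IC50 fitted from titrations, with GDP-bound KRAS as 100% and DMSO as 0% inhibition.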

[3] = target: Gppcp-bound recombinant K-Ras4B G12C mutant protein (amino acids 1-169, C51S/C80L/C118S) (Homo sapiens, UniProt P01116, C118S/C51S/C80L/G12C); experiment: KRASG12C binding assay (LC-MS, compound binding rate); details: test compound final concentration 0.5 μM, 25° C., 1 hour
How it was run: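 Covalent adduct formation measured by deconvoluted intact-mass LC-MS after 1 h at 25 °C with compound at 0.5 μM final and 50 nM Gppcp-loaded KRAS G12C (residues 1-169, C51S/C80L/C118S). Buffer: TBS, 0.1 mM TCEP, 0.25 mM MgCl2, 50 μM Gppcp. Binding % = one-molecule adduct/(unbound + all adducts), binned A ≥80, B 60–80, C 40–60, D 20–40, E <20.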

Row | IC50 [1] [nM] | IC50 [2] [nM] | IC50 ([1]; Homo sapiens, MIA PaCa-2, 72 h) [nM] | Compound | binding rate [3]
1 | 24 | 40 | – | COc1cc2c(nc(C)n2C)c(Cl)c1-c1cccn2c(C(=O)c3cc(F)c(NC(=O)/C=C/CNC(C)(C)C)c(F)c3)ccc12 (single isomer, unassigned) [Example 36-1, (E)-4-(tert-butylamino)-N-(4-(8-(4-chloro-6-methoxy-1,2-dimethyl-1H-benzo[d]imidazol-5-yl)indolizine-3-carbonyl)-2,6-difluorophenyl)but-2-enamide] | B (a binding rate of 60% or more and less than 80% is rated “B”)
2 | 32 | 46 | – | Cc1cc2c(ncn2C)c(Cl)c1-c1cccn2c(C(=O)c3cc(F)c(NC(=O)/C=C/CNC(C)(C)C)c(F)c3)ccc12 (single isomer, unassigned) [Example 13-1, (E)-4-(tert-butylamino)-N-(4-(8-(4-chloro-1,6-dimethyl-1H-benzo[d]imidazol-5-yl)indolizine-3-carbonyl)-2,6-difluorophenyl)but-2-enamide] | A (A binding rate of 80% or more is rated “A”)
3 | 410 | 110 | – | CCc1cc2c(nc(C)n2C)c(Cl)c1-c1cccn2c(C(=O)c3cc(F)c(NC(=O)/C=C/CN[C@H]4CC[C@H](OC)CC4)c(F)c3)ccc12 (single isomer, unassigned) [Example 22-2, (E)-N-(4-(8-(4-chloro-6-ethyl-1,2-dimethyl-1H-benzo[d]imidazol-5-yl)indolizine-3-carbonyl)-2,6-difluorophenyl)-4-(((1r,4r)-4-methoxycyclohexyl)amino)but-2-enamide] | A (A binding rate of 80% or more is rated “A”)
4 | – | 170 | 170 | CCc1nc2c(-c3cc4nc(C)n(C)c4cc3C(F)(F)F)cccn2c1C(=O)c1cc(F)c(NC(=O)/C=C/CN[C@H]2CC[C@H](OC)CC2)c(F)c1 [Example 99, (E)-N-(4-(8-(1,2-dimethyl-6-(trifluoromethyl)-1H-benzo[d]imidazol-5-yl)-2-ethylimidazo[1,2-a]pyridine-3-carbonyl)-2,6-difluorophenyl)-4-(((1r,4r)-4-methoxycyclohexyl)amino)but-2-enamide] | A (A binding rate of 80% or more is rated “A”)
5 | – | 83 | 280 | Cc1nc2cc(-c3cccn4c(C(=O)c5cc(F)c(NC(=O)/C=C/CN[C@@H]6CCC[C@H](F)C6)c(F)c5)ccc34)c(C(F)(F)F)cc2n1C (racemic) [Example 94, (E)-N-(4-(8-(1,2-dimethyl-6-(trifluoromethyl)-1H-benzo[d]imidazol-5-yl)indolizine-3-carbonyl)-2,6-difluorophenyl)-4-(((1R,3S)-3-fluorocyclohexyl)amino)but-2-enamide and (E)-N-(4-(8-(1,2-dimethyl-6-(trifluoromethyl)-1H-benzo[d]imidazol-5-yl)indolizine-3-carbonyl)-2,6-difluorophenyl-4-(((1S,3R)-3-fluorocyclohexyl)amino)but-2-enamide] | A (A binding rate of 80% or more is rated “A”)
6 | 35 | 29 | – | COc1cc2c(nc(C)n2C)c(Cl)c1-c1cccn2c(C(=O)c3cc(F)c(NC(=O)/C=C/CN[C@H]4CC[C@H](OC)CC4)c(F)c3)ccc12 (single isomer, unassigned) [Example 35-1, (E)-N-(4-(8-(4-chloro-6-methoxy-1,2-dimethyl-1H-benzo[d]imidazol-5-yl)indolizine-3-carbonyl)-2,6-difluorophenyl)-4-(((1r,4r)-4-methoxycyclohexyl)amino)but-2-enamide] | A (A binding rate of 80% or more is rated “A”)
7 | 1460 | 2440 | – | CCc1nc2c(-c3c(C(F)(F)F)cc4c(nc(C)n4C)c3OC)cccn2c1C(=O)c1cc(F)c(NC(=O)/C=C/CN[C@H]2CC[C@H](OC)CC2)c(F)c1 (single isomer, unassigned) [Example 102-2, (E)-N-(4-(2-ethyl-8-(4-methoxy-1,2-dimethyl-6-(trifluoromethyl)-1H-benzo[d]imidazol-5-yl)imidazo[1,2-a]pyridine-3-carbonyl)-2,6-difluorophenyl)-4-(((1r,4r)-4-methoxycyclohexyl)amino)but-2-enamide] | C (a binding rate of 40% or more and less than 60% is rated “C”)
8 | – | 35 | 140 | CO[C@H]1CC[C@H](NC/C=C/C(=O)Nc2c(F)cc(C(=O)c3cc(C)c4c(-c5c(C)cc6c(nc(C)n6C)c5Cl)cccn34)cc2F)CC1 [Example 87, (E)-N-(4-(8-(4-chloro-1,2,6-trimethyl-1H-benzo[d]imidazol-5-yl)-1-methylindolizine-3-carbonyl)-2,6-difluorophenyl)-4-(((1r,4r)-4-methoxycyclohexyl)amino)but-2-enamide] | A (A binding rate of 80% or more is rated “A”)

Second part, the molecule before the results:

Row | Compound | IC50 [1] [nM] | IC50 [2] [nM] | IC50 ([1]; Homo sapiens, MIA PaCa-2, 72 h) [nM] | binding rate [3]
9 | COc1cc2c(ncn2C)c(Cl)c1-c1cccn2c(C(=O)c3cc(F)c(NC(=O)/C=C/CNC(C)(C)C)c(F)c3)ccc12 (single isomer, unassigned) [Example 14-2, (E)-4-(tert-butylamino)-N-(4-(8-(4-chloro-6-methoxy-1-methyl-1H-benzo[d]imidazol-5-yl)indolizine-3-carbonyl)-2,6-difluorophenyl)but-2-enamide] | 42 | 56 | – | A (A binding rate of 80% or more is rated “A”)
10 | COc1c(-c2cc(F)cn3c(C(=O)c4cc(F)c(NC(=O)/C=C/CNC5(C)CC5)c(F)c4)cnc23)c(C(F)(F)F)cc2c1nc(C)n2C (single isomer, unassigned) [Example 112-2, (E)-N-(2,6-difluoro-4-(6-fluoro-8-(4-methoxy-1,2-dimethyl-6-(trifluoromethyl)-1H-benzo[d]imidazol-5-yl)imidazo[1,2-a]pyridine-3-carbonyl)phenyl)-4-((1-methylcyclopropyl)amino)but-2-enamide] | 532 | 362 | – | A (A binding rate of 80% or more is rated “A”)
11 | Cc1nc2cc(-c3cccn4c(C(=O)c5cc(F)c(NC(=O)/C=C/CNC6CCCCC6CO)c(F)c5)ccc34)c(C(F)(F)F)cc2n1C (stereo not drawn) [Example 65, (E)-N-(4-(8-(1,2-dimethyl-6-(trifluoromethyl)-1H-benzo[d]imidazol-5-yl)indolizine-3-carbonyl)-2,6-difluorophenyl)-4-((2-(hydroxymethyl)cyclohexyl)amino)but-2-enamide] | – | 76 | 190 | A (A binding rate of 80% or more is rated “A”)
12 | Cc1nc2cc(-c3cccn4c(C(=O)c5cc(F)c(NC(=O)/C=C/CNC6(C)CC6)c(F)c5)ccc34)c(C(F)(F)F)cc2n1C [Example 62, (E)-N-(4-(8-(1,2-dimethyl-6-(trifluoromethyl)-1H-benzo[d]imidazol-5-yl)indolizine-3-carbonyl)-2,6-difluorophenyl)-4-((1-methylcyclopropyl)amino)but-2-enamide] | – | 66 | 140 | A (A binding rate of 80% or more is rated “A”)
13 | CO[C@H]1CC[C@H](NC/C=C/C(=O)Nc2c(F)cc(C(=O)c3c(C4CC4)nc4c(-c5cc6nc(C)n(C)c6cc5C(F)(F)F)cccn34)cc2F)CC1 [Example 95, (E)-N-(4-(2-cyclopropyl-8-(1,2-dimethyl-6-(trifluoromethyl)-1H-benzo[d]imidazol-5-yl)imidazo[1,2-a]pyridine-3-carbonyl)-2,6-difluorophenyl)-4-(((1r,4r)-4-methoxycyclohexyl)amino)but-2-enamide] | – | 130 | 280 | A (A binding rate of 80% or more is rated “A”)
14 | Cn1cnc2cc(-c3cccn4c(C(=O)c5cc(F)c(NC(=O)/C=C/CNC6CCOCC6)c(F)c5)ccc34)c(C(F)(F)F)cc21 [Example 9, (E)-N-(2,6-difluoro-4-(8-(1-methyl-6-(trifluoromethyl)-1H-benzo[d]imidazol-5-yl)indolizine-3-carbonyl)phenyl)-4-((tetrahydro-2H-pyran-4-yl)amino)but-2-enamide] | – | 27 | 82 | A (A binding rate of 80% or more is rated “A”)
15 | Cc1nc2cc(-c3cccn4c(C(=O)c5cc(F)c(NC(=O)/C=C/CNC6(CO)CCCCC6)c(F)c5)ccc34)c(C(F)(F)F)cc2n1C [Example 69, (E)-N-(4-(8-(1,2-dimethyl-6-(trifluoromethyl)-1H-benzo[d]imidazol-5-yl)indolizine-3-carbonyl)-2,6-difluorophenyl)-4-((1-(hydroxymethyl)cyclohexyl)amino)but-2-enamide] | – | 87 | 340 | A (A binding rate of 80% or more is rated “A”)
